Three compounds from patent US5977097A, “1-methylcarbapenem derivatives” (Sankyo Company Limited, priority 1996, dated 1999) can be followed below.

One series is described as follows: Nephrotoxicity. In kind it is in vivo. As to conditions: rabbits, intravenous, 200 mg/kg. The protocol:
When the compounds of the present invention were administered to rabbits, the incorporation in to the renal cortex is relatively low.

Series [1] concerns Pseudomonas aeruginosa 1008. In words: In vivo antibacterial activity, treatment of infected mice (Test 3). The arrangement: species or system mice (SPF, DDY, male). As to conditions: Pseudomonas aeruginosa, 1008, sc, 120 h, intraperitoneal infection, subcutaneous twice (immediately and 4 h after inoculation), survival at five days, expressed as single dose, read-out: Treatment against infections, 50% effective dose (ED50). On the procedure:
The culture of the bacterial strain to be tested was inoculated intraperitoneally to groups of mice (SPF, DDY, male), each group consisting of 7 animals. A solution of the test compound was subcutaneously administered twice in total to the mice, once immediately and once four hours after the inoculation. From the survival ratio five days after infection, the 50% effective dose (ED50 : mg/kg) was determined by the Probit method and the single dose of test compound was indicated. The test results of the compound of Example 3, compound A and Meropenem against Pseudomonas aeruginosa 1008 are shown in Table 4. Incidentally, Compound A is as described above.

In series [2] the test system is Staphylococcus aureus 209P. In words: In vitro antibacterial activity by agar plate dilution method (Test 1). In kind it is cell-based. The note with it: Mueller-Hinton II agar, read-out: Minimum Growth Inhibitory Concentration (MIC). On the procedure:
(§1) Antibacterial activity was measured by the agar plate dilution method, whereby the minimum growth inhibitory concentration (MIC: μg/ml) against various pathogenic bacteria was determined. The test results on the antibacterial activity of the compounds of the invention of Examples 3 and 7 against Staphylococcus aureus […], Escherichia coli NIHJ and Pseudomonas aeruginosa No. 7 are shown in Table 2. Incidentally, Compounds A and B used for comparison are compounds of Example 3 in Japanese Patent Application Kokai No. Hei 5-310740 [compounds represented by the formula (I) of the present invention, wherein R^1, R^2 and R^3 represent hydrogen atoms]. Compound A has the R configuration at the binding position of the aminomethyl group. Compound B has the S configuration at the binding position of the aminomethyl group. The medium used for the measurement was Mueller-Hinton II agar (MHA, Becton Dikinson Microbiology Systems).

The subject of series [3] is Escherichia coli NIHJ. Described as above. In kind it is cell-based. The note with it: Mueller-Hinton II agar, read-out: Minimum Growth Inhibitory Concentration (MIC). The protocol:
as §1

The subject of series [4] is Pseudomonas aeruginosa No. 7. The series is described as above. In kind it is cell-based. The note with it: Mueller-Hinton II agar, read-out: Minimum Growth Inhibitory Concentration (MIC). On the procedure:
as §1

A further series has as its system Pseudomonas aeruginosa. In words: Antibacterial activity against Pseudomonas aeruginosa compared with aminomethyl compounds A and B. In kind it is cell-based. On the procedure:
as §1, with “culture of” for “medium used for”, “bacterial strain to be tested” for “measurement”, “inoculated intraperitoneally to groups of mice (SPF, DDY, male), each group consisting of 7 animals. A solution of the test compound was subcutaneously administered twice in total to the mice, once immediately and once four hours after the inoculation. From the survival ratio five days after infection, the 50% effective dose (ED50 : mg/kg) was determined by the Probit method and the single dose of test compound was indicated.” for “Mueller-Hinton II agar (MHA, Becton Dikinson Microbiology Systems).”

The nature of series [5]: Pharmacokinetics such as half-life in blood. As to conditions: in vivo.
In series [6] the test system is Staphylococcus aureus 209P. In words: In vitro antibacterial activity (Test 2). In kind it is cell-based. As to conditions: Nutrient Agar Eiken, read-out: Minimum Growth Inhibitory Concentration (MIC). On the procedure:
(§2) Antibacterial activity was measured by the agar plate dilution method, whereby the minimum growth inhibitory concentration (MIC: μg/ml) against various pathogenic bacteria was determined. The test results on the antibacterial activity of the compounds of the invention of Examples 3 and 7 against Staphylococcus aureus 209P, Escherichia coli NIHJ and Pseudomonas aeruginosa No. 7 are shown in Table 2.
(§3) The antibacterial activities of the compounds of the invention of Examples 3 and 7 and meropenem against Staphylococcus aureus 209P, Escherichia coli NIHJ and Pseudomonas aeruginosa 3719 (strain resistant to meropenem) are shown in Table 3.
(§4) The medium used for the measurement was Nutrient Agar Eiken (Eiken Chemicals Co., Ltd.).

The test system of series [7] is Escherichia coli NIHJ. In words: In vitro antibacterial activity (Test 2). In kind it is cell-based. As to conditions: Nutrient Agar Eiken, read-out: Minimum Growth Inhibitory Concentration (MIC). The protocol:
as §2, §3, §4

In series [8] the test system is Pseudomonas aeruginosa 3719 (strain resistant to meropenem). In words: In vitro antibacterial activity (Test 2). In kind it is cell-based. The note with it: Pseudomonas aeruginosa 3719 (resistant to meropenem); Nutrient Agar Eiken; read-out: Minimum Growth Inhibitory Concentration (MIC). On the procedure:
as §2, §3, §4

Values after ≈ are worked out from the molar mass of the structure shown.

As a reminder, the ED50 is the midpoint of the dose-response relation. Regarding `CNC[C@H]1CCN(C(=O)[C@@H]2C[C@H](SC3=C(C(=O)O)N4C(=O)[C@H]([C@@H](C)O)[C@H]4[C@H]3C)CN2)C1` [Example 3, (1R,5S,6S)-6-[(1R)-1-Hydroxyethyl]-1-methyl-2-[(2S,4S)-2-[(3R)-3-methylaminomethylpyrrolidin-1-ylcarbonyl]pyrrolidin-4-ylthio]-1-carbapen-2-em-3-carboxylic acid], the nephrotoxicity result in “Nephrotoxicity” is “did not exhibit nephrotoxicity”. For the same compound, the ED50 in series [1] came to 0.22 mg/kg. Further, the MIC in series [2] was 0.02 µg/mL (≈ 0.0442 µM); in the series with Escherichia coli NIHJ [3], 0.02 µg/mL (≈ 0.0442 µM); in series [4], 0.05 µg/mL (≈ 0.11 µM); in series [6] it was at most 0.01 µg/mL; with Escherichia coli NIHJ [7] it was at most 0.01 µg/mL; in series [8], 0.2 µg/mL (≈ 0.442 µM). In the series on Pseudomonas aeruginosa, the “activity against Pseudomonas aeruginosa” value is on record as “superior activity against Pseudomonas aeruginosa”. In addition, the “pharmacokinetic properties such as half-life in blood” value in series [5] is listed as “excellent pharmacokinetic properties such as half-life in blood”.

`C[C@@H](O)[C@H]1C(=O)N2C(C(=O)O)=C(S[C@@H]3CN[C@H](C(=O)N4CC[C@H](CNC(=N)N)C4)C3)[C@H](C)[C@H]12` [Example 7, (1R,5S,6S)-2-[(2S,4S)-2-[(3R)-3-Guanidinomethylpyrrolidin-1-ylcarbonyl]pyrrolidin-4-ylthio]-6-[(1R)-1-hydroxyethyl]-1-methyl-1-carbapen-2-em-3-carboxylic acid]: the MIC in series [2] was 0.02 µg/mL (≈ 0.0416 µM); in the series on Escherichia coli NIHJ [3] it was 0.02 µg/mL (≈ 0.0416 µM); in [4], 0.05 µg/mL (≈ 0.104 µM); in series [6], at most 0.01 µg/mL; with Escherichia coli NIHJ [7], at most 0.01 µg/mL; in series [8], 0.1 µg/mL (≈ 0.208 µM).

As to `C[C@@H](O)[C@H]1C(=O)N2C(C(=O)O)=C(S[C@@H]3CN[C@H](C(=O)N(C)C)C3)[C@H](C)[C@H]12` [Meropenem, meropenem, reference compound], the ED50 in [1] is 0.72 mg/kg. For the same compound, the values for the MIC (in [6]; in the series on Escherichia coli NIHJ [7]; in series [8]) were 0.02 µg/mL (≈ 0.0522 µM), at most 0.01 µg/mL and 6.2 µg/mL (≈ 16.2 µM), respectively.
